Assays:
Human Calpain 2/NS1 = biological target: T1, Human Calpain 2/NS1 (Homo sapiens, UniProt P17655); test: Calpain inhibition, continuous fluorescence (FRET substrate) assay, calpain 2; assay type: biochemical; settings: SensoLyte 520 FRET substrate, 25C
T1 sequence (P17655 1-700): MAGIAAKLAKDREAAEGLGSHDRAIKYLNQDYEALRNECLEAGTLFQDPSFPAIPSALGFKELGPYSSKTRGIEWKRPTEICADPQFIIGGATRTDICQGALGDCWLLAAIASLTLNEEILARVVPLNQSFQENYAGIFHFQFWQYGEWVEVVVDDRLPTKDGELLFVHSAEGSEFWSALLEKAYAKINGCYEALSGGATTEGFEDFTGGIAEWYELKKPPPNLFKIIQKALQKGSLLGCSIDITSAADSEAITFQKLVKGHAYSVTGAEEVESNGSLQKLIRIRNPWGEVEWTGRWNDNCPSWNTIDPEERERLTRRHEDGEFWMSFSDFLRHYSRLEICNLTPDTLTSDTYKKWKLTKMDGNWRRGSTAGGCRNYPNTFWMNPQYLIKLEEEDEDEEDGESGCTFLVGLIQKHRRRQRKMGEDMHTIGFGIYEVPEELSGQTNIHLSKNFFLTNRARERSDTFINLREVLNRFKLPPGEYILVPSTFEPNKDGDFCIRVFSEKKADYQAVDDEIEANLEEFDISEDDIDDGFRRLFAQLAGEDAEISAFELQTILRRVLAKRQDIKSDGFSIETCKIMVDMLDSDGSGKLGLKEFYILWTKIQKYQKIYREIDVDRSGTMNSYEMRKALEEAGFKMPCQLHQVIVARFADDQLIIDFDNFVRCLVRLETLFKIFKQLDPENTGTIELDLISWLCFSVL
T1 sequence (P04632 1-268 partner): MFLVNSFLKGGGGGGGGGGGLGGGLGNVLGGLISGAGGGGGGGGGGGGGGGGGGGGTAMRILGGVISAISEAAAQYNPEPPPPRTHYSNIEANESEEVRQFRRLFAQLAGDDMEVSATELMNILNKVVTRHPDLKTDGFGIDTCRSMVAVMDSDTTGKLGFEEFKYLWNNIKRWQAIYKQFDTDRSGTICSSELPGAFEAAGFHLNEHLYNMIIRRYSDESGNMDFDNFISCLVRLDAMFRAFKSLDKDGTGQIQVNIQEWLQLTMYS
Protocol: (§1) Calpain 1, 2, and 9 activity and inhibition thereof was assessed by means of a continuous fluorescence assay. The SensoLyte 520 Calpain substrate (Anaspec Inc) was optimized for detecting calpain activity. This substrate contains an internally quenched 5-FAM/QXLTM 520 FRET pair. Calpains 1, 2, and 9 cleave the FRET substrate into two separate fragments resulting in an increase of 5-FAM fluorescence that is proportional to calpain activity Assays were typically setup in black 384-well plates using automated liquid handling as follows. Calpain assay base buffer typically contains 50 mM Tris, pH 7.5, 100 mM NaCl and 1 mM DTT. Inhibitors were serially diluted in DMSO and used to setup 2× mixtures with calpains in the aforementioned buffer. After incubation at ambient temperature (25C), the reaction was initiated by adding a 2× mix of the fluorescent peptide substrate and CaCl2) (required for in-situ calpain activation) in the same buffer. Reaction progress curve data were typically collected for 10 min using excitation/emission wavelengths of 490 nm/520 nm on SpectraMax i3× or the FLIPR-Tetra plate readers (Molecular Devices Inc). Reaction rates were calculated from progress curve slopes typically over 1-5 min. Dose response curves (rate vs. log inhibitor concentration) were typically fit to a 4-parameter logistic function to extract IC50 values.

Human Calpain 1/NS1 = biological target: T2, Human Calpain 1/NS1 (Homo sapiens, UniProt P07384); test: Calpain inhibition, continuous fluorescence (FRET substrate) assay, calpain 1; assay type: biochemical; settings: SensoLyte 520 FRET substrate, 25C
T2 sequence (P07384 1-714): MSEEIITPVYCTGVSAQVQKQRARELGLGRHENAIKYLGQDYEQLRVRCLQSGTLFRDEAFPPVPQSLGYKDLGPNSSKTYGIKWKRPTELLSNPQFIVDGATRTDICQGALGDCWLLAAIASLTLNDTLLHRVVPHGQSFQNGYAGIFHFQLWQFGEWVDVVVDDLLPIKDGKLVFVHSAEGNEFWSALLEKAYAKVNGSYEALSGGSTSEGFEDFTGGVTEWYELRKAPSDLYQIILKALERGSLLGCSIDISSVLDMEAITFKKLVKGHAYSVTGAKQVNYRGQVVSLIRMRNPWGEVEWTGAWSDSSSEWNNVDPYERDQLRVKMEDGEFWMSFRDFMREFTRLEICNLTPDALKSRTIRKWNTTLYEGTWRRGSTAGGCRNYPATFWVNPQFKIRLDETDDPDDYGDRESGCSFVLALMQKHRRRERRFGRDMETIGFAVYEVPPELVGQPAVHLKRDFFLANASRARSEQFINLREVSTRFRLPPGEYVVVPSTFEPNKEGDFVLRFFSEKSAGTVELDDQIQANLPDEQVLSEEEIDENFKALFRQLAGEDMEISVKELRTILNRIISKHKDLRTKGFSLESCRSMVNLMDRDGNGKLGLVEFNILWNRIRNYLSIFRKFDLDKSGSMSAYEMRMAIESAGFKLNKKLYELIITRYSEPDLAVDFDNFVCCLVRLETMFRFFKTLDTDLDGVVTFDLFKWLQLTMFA
T2 sequence (P04632 1-268 partner): T1 sequence (P04632 1-268 partner)
Protocol: as §1

[1] = test system: Calpain activity in SH-SY5Y cells; test: SH-SY5Y spectrin breakdown product (SBDP-150) western blot assay; assay type: cell-based; settings: Homo sapiens; SH-SY5Y cells, 25 uM A23187, SBDP-150 western blot; read-out: SH-SY5Y Spectrin IC50
[2] = test system: Calpain activity in SH-SY5Y cells; test: SH-SY5Y Suc-LLVY-AMC fluorescence assay; assay type: cell-based; settings: Homo sapiens; SH-SY5Y cells, 100 uM Suc-LLVY-AMC; read-out: SH-SY5Y + AMC IC50
Human Calpain 9/NS1 = biological target: T3, Human Calpain 9/NS1 (Homo sapiens, UniProt O14815); test: Calpain inhibition, continuous fluorescence (FRET substrate) assay, calpain 9; assay type: biochemical; settings: SensoLyte 520 FRET substrate, 25C
T3 sequence (O14815 1-690): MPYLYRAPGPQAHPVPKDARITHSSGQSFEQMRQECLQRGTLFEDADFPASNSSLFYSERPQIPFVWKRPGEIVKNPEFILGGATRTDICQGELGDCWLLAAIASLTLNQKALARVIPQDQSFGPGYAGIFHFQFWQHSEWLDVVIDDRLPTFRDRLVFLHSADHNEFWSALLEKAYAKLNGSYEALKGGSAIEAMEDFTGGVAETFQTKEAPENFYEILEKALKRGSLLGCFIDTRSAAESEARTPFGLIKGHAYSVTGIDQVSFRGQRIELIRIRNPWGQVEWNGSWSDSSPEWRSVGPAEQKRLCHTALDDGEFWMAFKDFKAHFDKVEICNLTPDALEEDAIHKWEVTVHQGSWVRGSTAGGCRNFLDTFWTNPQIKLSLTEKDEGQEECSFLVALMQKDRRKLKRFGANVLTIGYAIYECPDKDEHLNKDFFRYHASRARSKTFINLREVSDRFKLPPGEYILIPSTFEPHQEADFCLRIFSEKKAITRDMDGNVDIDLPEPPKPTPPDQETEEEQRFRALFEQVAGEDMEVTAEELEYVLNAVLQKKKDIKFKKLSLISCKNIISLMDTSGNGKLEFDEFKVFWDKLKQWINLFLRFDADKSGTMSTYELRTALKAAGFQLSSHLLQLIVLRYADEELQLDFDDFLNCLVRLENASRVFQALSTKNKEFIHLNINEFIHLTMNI
T3 sequence (P04632 1-268 partner): T1 sequence (P04632 1-268 partner)
Protocol: as §1

IC50 (Human Calpain 2/NS1) [µM] | IC50 (Human Calpain 1/NS1) [µM] | IC50 [1] [µM] | IC50 [2] [µM] | IC50 (Human Calpain 9/NS1) [µM] | Structure (SMILES)
< 3 | < 3 | > 25 | 10 to 25 | < 3 | Cn1cc(C(=O)NC(Cc2ccccc2)C(=O)C(N)=O)c(-c2ncnc3ccccc23)n1 (centres unmarked) [Compound 49, N-(4-AMINO-3,4-DIOXO-1-PHENYLBUTAN-2-YL)-1-METHYL-3-(QUINAZOLIN-4-YL)-1H-PYRAZOLE-4-CARBOXAMIDE]
< 3 | < 3 | 10 to 25 | 10 to 25 | < 3 | Cn1cc(C(=O)NC(Cc2ccccc2)C(=O)C(N)=O)c(-c2cccc3nn(C)cc23)n1 (centres unmarked) [Compound 69, N-(4-AMINO-3,4-DIOXO-1-PHENYLBUTAN-2-YL)-1-METHYL-3-(2-METHYL-2H-INDAZOL-4-YL)-1H-PYRAZOLE-4-CARBOXAMIDE]
< 3 | < 3 | > 25 | < 10 | < 3 | NC(=O)C(=O)C(Cc1ccccc1)NC(=O)c1cn(C(F)F)nc1-c1cccc2cccnc12 (centres unmarked) [Compound 18, N-(4-AMINO-3,4-DIOXO-1-PHENYLBUTAN-2-YL)-1-(DIFLUOROMETHYL)-3-(QUINOLIN-8-YL)-1H-PYRAZOLE-4-CARBOXAMIDE]
< 3 | 3 to 10 | > 25 | > 25 | < 3 | COc1cccc(-c2nn(C)cc2C(=O)NC(Cc2ccccc2)C(=O)C(N)=O)c1OC (centres unmarked) [Compound 12, N-(4-AMINO-3,4-DIOXO-1-PHENYLBUTAN-2-YL)-3-(2,3-DIMETHOXYPHENYL)-1-METHYL-1H-PYRAZOLE-4-CARBOXAMIDE]
< 3 | < 3 | < 10 | < 10 | < 3 | NC(=O)C(=O)C(Cc1ccccc1)NC(=O)c1cn(C(F)F)nc1-c1cccc2ncsc12 (centres unmarked) [Compound 7, N-(4-AMINO-3,4-DIOXO-1-PHENYLBUTAN-2-YL)-3-(BENZO[D]THIAZOL-7-YL)-1-(DIFLUOROMETHYL)-1H-PYRAZOLE-4-CARBOXAMIDE]
< 3 | < 3 | > 25 | < 10 | < 3 | Cc1nc(-c2ccccc2F)c(C(=O)NC(Cc2ccccc2Cl)C(=O)C(N)=O)o1 (centres unmarked) [Compound 83, N-(4-AMINO-1-(2-CHLOROPHENYL)-3,4-DIOXOBUTAN-2-YL)-4-(2-FLUOROPHENYL)-2-METHYLOXAZOLE-5-CARBOXAMIDE]
< 3 | < 3 | < 10 | < 10 | < 3 | Cc1occc1-c1nsnc1C(=O)NC(Cc1ccccc1)C(=O)C(N)=O (centres unmarked) [Compound 46, N-(4-AMINO-3,4-DIOXO-1-PHENYLBUTAN-2-YL)-4-(2-METHYLFURAN-3-YL)-1,2,5-THIADIAZOLE-3-CARBOXAMIDE]
< 3 | < 3 | < 10 | < 10 | < 3 | NC(=O)C(=O)C(Cc1ccccc1)NC(=O)c1cn(C(F)F)nc1-c1cc(Cl)oc1Cl (centres unmarked) [Compound 36, N-(4-AMINO-3,4-DIOXO-1-PHENYLBUTAN-2-YL)-3-(2,5-DICHLOROFURAN-3-YL)-1-(DIFLUOROMETHYL)-1H-PYRAZOLE-4-CARBOXAMIDE]
< 3 | < 3 | 10 to 25 | 10 to 25 | < 3 | Cn1cc(C(=O)NC(Cc2ccccc2)C(=O)C(N)=O)c(-c2cccc3[nH]ncc23)n1 (centres unmarked) [Compound 16, N-(4-AMINO-3,4-DIOXO-1-PHENYLBUTAN-2-YL)-3-(1H-INDAZOL-4-YL)-1-METHYL-1H-PYRAZOLE-4-CARBOXAMIDE]
< 3 | < 3 | > 25 | < 10 | < 3 | Cn1cc(C(=O)NC(Cc2ccccc2)C(=O)C(N)=O)c(-c2ccoc2Cl)n1 (centres unmarked) [Compound 19, N-(4-AMINO-3,4-DIOXO-1-PHENYLBUTAN-2-YL)-3-(2-CHLOROFURAN-3-YL)-1-METHYL-1H-PYRAZOLE-4-CARBOXAMIDE]
< 3 | < 3 | < 10 | < 10 | < 3 | Cc1cc(-c2nsnc2C(=O)NC(Cc2ccccc2)C(=O)C(N)=O)c(C)o1 (centres unmarked) [Compound 23, N-(4-AMINO-3,4-DIOXO-1-PHENYLBUTAN-2-YL)-4-(2,5-DIMETHYLFURAN-3-YL)-1,2,5-THIADIAZOLE-3-CARBOXAMIDE]
< 3 | < 3 | 10 to 25 | < 10 | < 3 | Cn1cc(C(=O)NC(Cc2ccccc2)C(=O)C(N)=O)c(-c2cc(Cl)oc2Cl)n1 (centres unmarked) [Compound 15, N-(4-AMINO-3,4-DIOXO-1-PHENYLBUTAN-2-YL)-3-(2,5-DICHLOROFURAN-3-YL)-1-METHYL-1H-PYRAZOLE-4-CARBOXAMIDE]
< 3 | < 3 | 10 to 25 |  | < 3 | COc1cccc(-c2nc(C)oc2C(=O)NC(Cc2ccccc2)C(=O)C(N)=O)c1F (centres unmarked) [Compound 75, N-(4-AMINO-3,4-DIOXO-1-PHENYLBUTAN-2-YL)-4-(2-FLUORO-3-METHOXYPHENYL)-2-METHYLOXAZOLE-5-CARBOXAMIDE]
< 3 | < 3 | > 25 |  | < 3 | COC(=O)C(=O)C(Cc1ccccc1)NC(=O)c1cn(C)nc1-c1cccc(F)c1 (centres unmarked) [Compound 74, METHYL-3-(3-(3-FLUOROPHENYL)-1-METHYL-1H-PYRAZOLE-4-CARBOXAMIDO)-2-OXO-4-PHENYLBUTANOATE]
